Data as given in patent US20240216317A1, “COMPOSITION FOR PREVENTING, AMELIORATING OR TREATING INFLAMMATORY BOWEL DISEASE COMPRISING COMPOUND ISOLATED FROM ISODON EXCISUS AS EFFECTIVE COMPONENT” (HEALINNOLS INC., priority 2022, published 2024).

Test system: TNF-α
Assay: TNF-α mRNA expression (qPCR) in zebra fish animal model of DSS-induced inflammatory bowel disease
Assay type: in vivo, zebra fish (Danio rerio: AB)
Conditions: FIG. 5; for expression amount of TNF-α compared to DSS model group: zebra fish larvae, 0.5% DSS, 5 hours treatment, Chemical formula 1 0.3 μM and 1 μM
Method: As a zebra fish animal model of inflammatory bowel disease, wild-type zebra fish (Danio rerio: AB) was used, which was kept in an exclusive breeding facility at conditions including light/dark cycle of 14 hours/10 hours and temperature of 28° C. All the animal experiments were carried out according to the protocol of Ethics Committee for Animal Expectation, Healinno-LS (Registration No.: AEC-20210720-0001), and all the materials were sterilized first before they are used for experiment.
According to a treatment with 0.5% DSS (dextran sulfate sodium, M.W. 36,000-50,000, #160110, MP), which induces “ulcerative colitis” as inflammatory bowel disease by creating a damage in colonic epithelial cells, a zebra fish was induced to have inflammatory bowel disease. Then, by threating the zebra fish with the compound represented by Chemical formula 1 of the present invention at different concentrations (0.3 μM and 1 μM), inhibitory activity on inflammatory bowel disease was examined.
As a zebra fish animal model of DSS-induced ulcerative colitis, zebra fish larvae 3 days after fertilization (3 dpf; days post fertilization) were used. 3 dpf zebra fish larvae were added to a 24-well plate, i.e., 20 larvae per well, and treated with 0.5% DSS to induce ulcerative colitis. After keeping them to 6 dpf zebra fish larva period, DSS was removed, and then they were treated for 5 hours with the compound represented by Chemical formula 1 of the present invention.
The zebra fish larvae which have been treated with the compound represented by Chemical formula 1 of the present invention were then added with TRIzol reagent (300 μl), and then homogenized by using a tissue homogenizer (G20, GINKO). Homogenized zebra fish larvae were maintained for 5 minutes at room temperature, and then treated with chloroform (60 μl). After removing proteins and cell debris, the mixture was centrifuged for 15 minutes at 12,000×g, 4° C. […] Purity and concentration were measured by using a microplate reader (FLUOstar omega, BMG Labtech), and the extracted total RNA was kept at −80° C. […]

Row | Structure (SMILES) | expression amount of TNF-α compared to DSS model group | reduction of transcription amount of proinflammatory cytokines (zebra fish DSS model, TNF-α and IL-1β, compared with 5-ASA and prednisolone)
1 | Nc1ccc(O)c(C(=O)O)c1 [Compound 5-ASA, 5-aminosalicylic acid, reference compound] | statistically significantly lower | 
2 | COC(=O)C[C@H](OC(=O)/C=C/c1ccc(O)c(O)c1)c1ccc(O)c(O)c1 [Compound 1, 3-[3,4-dihydroxyphenyl]acrylic acid 1-[3,4-dihydroxyphenyl]-2-methoxycarbonylethyl ester] | statistically significantly lower | much lower concentration than 5-ASA and prednisolone
